We go through five compounds from patent US7683064B2, “Inhibitors of Bruton's tyrosine kinase” (Roche Palo Alto LLC, priority 2008, dated 2010).

The experiment concerns the target T1, Btk enzyme (His-tagged, full-length) (Homo sapiens, UniProt Q06187).
T1 construct: 5-10 nM Btk enzyme (His-tagged, full-length); His tag
The experiment can be described thus: Bruton's Tyrosine Kinase (Btk) inhibition assay, 33P filtration capture. In kind it is biochemical. To be noted: 100 μM ATP, 30 μM biotinylated SH2 peptide substrate, 5-10 nM Btk, 30 min at 30° C. The source says: The assay is a capture of radioactive ^33P phosphorylated product through filtration. The interactions of Btk, biotinylated SH2 peptide substrate (Src homology), and ATP lead to phosphorylation of the peptide substrate. Biotinylated product is bound streptavidin sepharose beads. All bound, radiolabeled products are detected by scintillation counter.
Plates assayed are 96-well polypropylene (Greiner) and 96-well 1.2 μm hydrophilic PVDF filter plates (Millipore). Concentrations reported here are final assay concentrations: 10-100 μM compounds in DMSO (Burdick and Jackson), 5-10 nM Btk enzyme (His-tagged, full-length), 30 μM peptide substrate (Biotin-Aca-[…]-NH2), 100 μM ATP (Sigma), 8 mM imidazole (Sigma, pH 7.2), 8 mM glycerol-2-phosphate (Sigma), 200 μM EGTA (Roche Diagnostics), 1 mM MnCl2 (Sigma), 20 mM MgCl2 (Sigma), 0.1 mg/ml BSA (Sigma), 2 mM DTT (Sigma), 1 μCi ^33P ATP (Amersham), 20% streptavidin sepharose beads (Amersham), 50 mM EDTA (Gibco), 2 M NaCl (Gibco), 2 M NaCl w/1% phosphoric acid (Gibco), microscint-20 (Perkin Elmer).
IC50 determinations are calculated from 10 data points per compound utilizing data produced from a standard 96-well plate assay template. One control compound and seven unknown inhibitors were tested on each plate and each plate was run twice. Typically, compounds were diluted in half-log starting at 100 μM and ending at 3 nM. The control compound was staurosporine. Background was counted in the absence of peptide substrate. Total activity was determined in the presence of peptide substrate. The following protocol was used to determine Btk inhibition.
1) Sample preparation: The test compounds were diluted at half-log increments in assay buffer (imidazole, glycerol-2-phosphate, EGTA, MnCl2, MgCl2, BSA).
• a.) rinse beads by centrifuging at 500 g • b.) reconstitute the beads with PBS and EDTA to produce a 20% bead slurry 3) Pre-incubate reaction mix without substrate (assay buffer, DTT, ATP, ^33P ATP) and mix with substrate (assay buffer, DTT, ATP, ^33P ATP, peptide substrate) 30° C. for 15 min. 4) To start assay, pre-incubate 10 μL Btk in enzyme buffer (imidazole, glycerol-2-phos-phate, BSA) and 10 μL of test compounds for 10 min at RT. 5) Add 30 μL reaction mixture without or with substrate to Btk and compounds. 6) Incubate 50 μL total assay mix for 30 min at 30° C. 7) Transfer 40 μL of assay to 150 μL bead slurry in filter plate to stop reaction. 8) Wash filter plate after 30 min, with following steps • a. 3×250 μL NaCl • b. 3×250 μL NaCl containing 1% phosphoric acid • c.

A word on the IC50: it is the midpoint of a concentration-inhibition curve.

T1 sequence (Q06187 whole entry): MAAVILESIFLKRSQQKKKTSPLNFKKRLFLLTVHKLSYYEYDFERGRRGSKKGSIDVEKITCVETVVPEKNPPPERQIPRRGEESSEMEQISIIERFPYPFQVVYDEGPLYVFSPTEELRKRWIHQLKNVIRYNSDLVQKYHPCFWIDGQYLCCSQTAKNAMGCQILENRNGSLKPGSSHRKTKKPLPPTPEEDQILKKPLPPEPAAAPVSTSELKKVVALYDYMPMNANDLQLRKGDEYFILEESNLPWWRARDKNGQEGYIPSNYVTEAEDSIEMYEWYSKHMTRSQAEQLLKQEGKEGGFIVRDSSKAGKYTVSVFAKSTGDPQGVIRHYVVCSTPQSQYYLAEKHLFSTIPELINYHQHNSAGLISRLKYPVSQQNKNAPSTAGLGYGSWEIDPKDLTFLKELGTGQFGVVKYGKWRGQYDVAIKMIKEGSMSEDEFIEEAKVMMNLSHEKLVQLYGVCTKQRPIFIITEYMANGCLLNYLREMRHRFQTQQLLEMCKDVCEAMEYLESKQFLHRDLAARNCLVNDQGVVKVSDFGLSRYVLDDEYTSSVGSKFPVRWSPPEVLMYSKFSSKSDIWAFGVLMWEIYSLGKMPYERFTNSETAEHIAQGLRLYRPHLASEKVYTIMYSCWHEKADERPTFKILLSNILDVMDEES

For `CN(C)c1ccc2c(c1)CCN(c1cccc(-c3cc(Nc4ccc(C(=O)N5CCOCC5)cn4)c(=O)n(C)c3)c1)C2=O` [Example I-1, 6-Dimethylamino-2-(3-{1-methyl-5-[5-(morpholine-4-carbonyl)-pyridin-2-ylamino]-6-oxo-1,6-dihydro-pyridin-3-yl}-phenyl)-3,4-dihydro-2H-isoquinolin-1-one], the IC50 was determined as 420 nM.
In turn, `CN(C)c1ccc2c(c1)CCN(c1cccc(-c3cc(Nc4ccc(C(=O)N5CCOCC5)cn4)c(=O)n(C)c3)c1CO)C2=O` [Example I-2, 6-Dimethylamino-2-(2-hydroxymethyl-3-{1-methyl-5-[5-(morpholine-4-carbonyl)-pyridin-2-ylamino]-6-oxo-1,6-dihydro-pyridin-3-yl}-phenyl)-3,4-dihydro-2H-isoquinolin-1-one] gave an IC50 of 40 nM.
`Cc1c(-c2cc(Nc3ccc(C(=O)N4CCOCC4)cn3)c(=O)n(C)c2)cccc1-c1c[nH]c2cc(N(C)C)ccc2c1=O` [II-2, 7-Dimethylamino-3-(2-methyl-3-{1-methyl-5-[5-(morpholine-4-carbonyl)-pyridin-2-ylamino]-6-oxo-1,6-dihydro-pyridin-3-yl}-phenyl)-1H-quinolin-4-one] had an IC50 of 370 nM.
`CN(C)c1ccc2c(=O)n(-c3cccc(-c4cc(Nc5ccc(C(=O)N6CCOCC6)cn5)c(=O)n(C)c4)c3)ccc2c1` [III-1, 6-Dimethylamino-2-(3-{1-methyl-5-[5-(morpholine-4-carbonyl)-pyridin-2-ylamino]-6-oxo-1,6-dihydro-pyridin-3-yl}-phenyl)-2H-isoquinolin-1-one] displayed an IC50 of 1080 nM.
The same measure for `Cc1c(-c2cc(Nc3ccc(C(=O)N4CCOCC4)cn3)c(=O)n(C)c2)cccc1-n1ccc2cc(N(C)C)ccc2c1=O` [III-2, 6-Dimethylamino-2-(2-methyl-3-{1-methyl-5-[5-(morpholine-4-carbonyl)-pyridin-2-ylamino]-6-oxo-1,6-dihydro-pyridin-3-yl}-phenyl)-2H-isoquinolin-1-one]: 2760 nM.
